Test results reported in paper PMC3138877 (Cancer research, 2011).
Read-outs that look alike come from different tables or passages of the source.

What was measured:
[1] = system: HCC78 cells (SLC34A2-ROS fusion); experiment: Cell Titer Blue viability, HCC78; assay type: cell-based, human
[2] = system: PC-9 lung cancer cells (EGFR exon 19 del); experiment: Cell Titer Blue viability, PC-9; assay type: cell-based, human; settings: read-out: IC50 PC-9
[3] = system: HepG2 hepatocellular carcinoma cells; experiment: Cell Titer Blue viability, HepG2; assay type: cell-based, human; settings: read-out: IC50 HepG2
[4] = system: H2030 lung cancer cells (KRAS G12C); experiment: Cell Titer Blue viability, H2030; assay type: cell-based, human; settings: read-out: IC50 H2030
[5] = Pharmacokinetic study, plasma levels in mice; assay type: in vivo; settings: for plasma level at 2 hours after dosing: mice, oral; for bioavailability in vivo / half-life in vivo: pharmacokinetic study
[6] = system: H2228 lung cancer cells (EML4-ALK E6a/b;A20); experiment: Cell Titer Blue viability, H2228; assay type: cell-based, human; settings: for IC50: read-out: IC50 H2228, 72h, Cell titer blue
[7] = system: H3122 lung cancer cells harboring EML4-ALK E13;A20 (variant 1); experiment: Cell Titer Blue viability, H3122; assay type: cell-based, human; settings: for fold more potent than PF-1066 in H3122: growth inhibition
[8] = system: HCC78 cells (SLC34A2-ROS fusion); settings: cited from earlier work
[9] = system: SUDHL-1 lymphoma cells (NPM-ALK); experiment: Cell Titer Blue viability, SUDHL-1; assay type: cell-based, human; settings: read-out: IC50 SUDHL-1, 72h
[10] = system: EML4-ALK E13;A20, EML4-ALK E20;A20, EML4-ALK E6b;A20 and KIF5B-ALK; experiment: Surrogate kinase assays on four ALK variants in 293 cells; assay type: cell-based
[11] = 10-day repeated oral toxicity study in SD rats; settings: for no significant toxicity (NST) level: 10 days repeated oral administration
[12] = system: SY5Y neuroblastoma cells (ALK F1174L); experiment: Cell Titer Blue viability, SY5Y; assay type: cell-based, human; settings: read-out: IC50 SY5Y, 72h
ALK = ALK (Homo sapiens, UniProt Q9UM73); experiment: Ambit KINOMEscan dose-response profiling, ALK; settings: for IC50: read-out: IC50 ALK (Ambit assays), Biochemical potency, Kinomescan
Sequence of ALK (Q9UM73 19-1620): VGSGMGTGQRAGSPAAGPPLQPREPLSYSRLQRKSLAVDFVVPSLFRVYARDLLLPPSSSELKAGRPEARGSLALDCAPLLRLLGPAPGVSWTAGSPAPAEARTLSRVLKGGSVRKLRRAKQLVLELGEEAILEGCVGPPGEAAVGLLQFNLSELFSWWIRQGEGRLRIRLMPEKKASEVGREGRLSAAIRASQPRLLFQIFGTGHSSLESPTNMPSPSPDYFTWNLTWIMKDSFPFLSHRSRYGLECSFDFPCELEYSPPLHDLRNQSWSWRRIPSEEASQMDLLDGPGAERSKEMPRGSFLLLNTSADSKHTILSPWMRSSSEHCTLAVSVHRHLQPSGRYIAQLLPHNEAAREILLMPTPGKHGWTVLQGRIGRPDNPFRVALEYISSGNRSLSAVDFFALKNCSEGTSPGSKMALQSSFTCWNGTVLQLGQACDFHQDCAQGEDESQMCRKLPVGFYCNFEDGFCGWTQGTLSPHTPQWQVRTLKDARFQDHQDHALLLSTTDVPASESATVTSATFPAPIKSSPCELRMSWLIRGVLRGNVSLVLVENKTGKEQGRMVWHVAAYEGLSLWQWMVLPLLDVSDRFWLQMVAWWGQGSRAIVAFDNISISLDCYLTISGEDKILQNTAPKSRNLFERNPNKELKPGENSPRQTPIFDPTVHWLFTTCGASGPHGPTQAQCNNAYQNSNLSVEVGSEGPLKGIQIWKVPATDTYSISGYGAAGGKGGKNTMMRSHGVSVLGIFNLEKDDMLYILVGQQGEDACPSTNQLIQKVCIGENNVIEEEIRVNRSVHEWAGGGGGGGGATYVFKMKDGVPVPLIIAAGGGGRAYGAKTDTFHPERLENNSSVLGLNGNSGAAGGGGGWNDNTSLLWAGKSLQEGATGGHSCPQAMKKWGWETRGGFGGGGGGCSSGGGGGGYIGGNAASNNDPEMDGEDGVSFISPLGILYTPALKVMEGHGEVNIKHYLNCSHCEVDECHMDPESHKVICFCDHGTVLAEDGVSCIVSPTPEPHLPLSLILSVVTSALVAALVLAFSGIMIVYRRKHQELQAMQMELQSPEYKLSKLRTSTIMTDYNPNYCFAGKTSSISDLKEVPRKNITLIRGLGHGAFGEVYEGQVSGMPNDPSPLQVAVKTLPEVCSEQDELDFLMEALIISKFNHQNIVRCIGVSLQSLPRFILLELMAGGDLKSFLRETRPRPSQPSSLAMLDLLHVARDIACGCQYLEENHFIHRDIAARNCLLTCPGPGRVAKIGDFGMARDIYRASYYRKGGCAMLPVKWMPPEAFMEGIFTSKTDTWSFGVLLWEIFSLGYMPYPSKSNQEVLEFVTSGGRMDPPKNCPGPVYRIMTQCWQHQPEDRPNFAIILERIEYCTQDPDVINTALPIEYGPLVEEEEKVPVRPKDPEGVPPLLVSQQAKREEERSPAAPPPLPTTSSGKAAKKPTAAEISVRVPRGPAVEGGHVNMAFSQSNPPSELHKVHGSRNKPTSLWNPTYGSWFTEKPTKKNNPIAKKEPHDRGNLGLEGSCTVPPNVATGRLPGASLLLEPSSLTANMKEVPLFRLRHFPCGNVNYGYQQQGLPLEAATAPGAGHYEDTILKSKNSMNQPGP

H3122 xenografts = experiment: H3122 xenograft study in nude mice; assay type: in vivo; settings: for growth of H3122 xenograft tumors vs vehicle: nude mice, oral gavage; for mouse weight: xenograft experiment
H3122 cells = experiment: Annexin V / propidium iodide apoptosis assay; assay type: cell-based, human; settings: 72h, increasing concentrations
[13] = system: MKN-45 gastric carcinoma cells (MET dependent); experiment: Cell Titer Blue viability, MKN-45; assay type: cell-based, human; settings: read-out: IC50 MKN-45, 72h
MET = MET (Homo sapiens, UniProt P08581); experiment: Ambit KINOMEscan dose-response profiling, MET; settings: read-out: IC50 MET (Ambit assays), Biochemical potency
Sequence of MET (P08581 25-1390): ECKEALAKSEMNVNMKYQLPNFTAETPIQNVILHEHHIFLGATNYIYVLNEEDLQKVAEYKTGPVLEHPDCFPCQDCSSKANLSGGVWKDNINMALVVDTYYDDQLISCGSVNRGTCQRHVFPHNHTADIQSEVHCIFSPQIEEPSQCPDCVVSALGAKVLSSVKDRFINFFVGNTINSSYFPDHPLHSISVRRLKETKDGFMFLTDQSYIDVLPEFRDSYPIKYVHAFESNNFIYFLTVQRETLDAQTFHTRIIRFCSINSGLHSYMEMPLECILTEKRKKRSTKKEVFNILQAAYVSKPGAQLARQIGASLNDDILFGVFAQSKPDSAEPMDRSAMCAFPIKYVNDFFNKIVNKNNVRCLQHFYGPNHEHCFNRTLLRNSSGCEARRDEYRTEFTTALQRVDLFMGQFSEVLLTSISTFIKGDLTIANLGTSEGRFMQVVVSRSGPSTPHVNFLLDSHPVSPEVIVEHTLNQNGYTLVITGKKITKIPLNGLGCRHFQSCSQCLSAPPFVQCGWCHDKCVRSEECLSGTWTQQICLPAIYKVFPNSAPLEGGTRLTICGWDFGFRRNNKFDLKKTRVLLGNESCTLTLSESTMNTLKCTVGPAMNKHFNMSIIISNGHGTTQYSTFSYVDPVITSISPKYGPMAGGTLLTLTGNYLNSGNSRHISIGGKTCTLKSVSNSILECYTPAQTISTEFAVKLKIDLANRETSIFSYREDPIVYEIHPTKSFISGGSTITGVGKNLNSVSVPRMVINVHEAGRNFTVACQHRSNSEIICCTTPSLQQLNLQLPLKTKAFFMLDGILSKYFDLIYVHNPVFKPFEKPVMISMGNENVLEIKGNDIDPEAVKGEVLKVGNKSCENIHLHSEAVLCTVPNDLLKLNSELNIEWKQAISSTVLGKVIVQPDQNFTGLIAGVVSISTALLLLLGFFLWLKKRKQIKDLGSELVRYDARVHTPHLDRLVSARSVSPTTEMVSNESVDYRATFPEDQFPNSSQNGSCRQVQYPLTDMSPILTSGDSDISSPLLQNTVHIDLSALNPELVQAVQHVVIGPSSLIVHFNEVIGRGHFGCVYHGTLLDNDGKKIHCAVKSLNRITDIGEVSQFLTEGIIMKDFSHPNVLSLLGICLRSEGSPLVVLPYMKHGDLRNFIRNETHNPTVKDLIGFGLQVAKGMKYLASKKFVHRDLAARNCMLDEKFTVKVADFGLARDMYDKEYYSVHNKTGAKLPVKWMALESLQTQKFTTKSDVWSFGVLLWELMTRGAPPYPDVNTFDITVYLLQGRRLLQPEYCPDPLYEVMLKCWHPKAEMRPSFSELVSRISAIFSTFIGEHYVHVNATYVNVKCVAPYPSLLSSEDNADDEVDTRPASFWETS

EML4-ALK E13;A20 = EML4-ALK E13;A20 (Homo sapiens, UniProt Q9HC35+Q9UM73); experiment: Surrogate kinase assay; assay type: cell-based; settings: 2 hours treatment, immunoblot, compared with PF-1066
[14] = Blood-brain-barrier penetration in C57BL/6J mice; assay type: in vivo; settings: for brain penetration (brain tissue concentration as % of plasma level): C57BL/6J mice, 2 hours after dosing
ROS1 = ROS1 (Homo sapiens, UniProt P08922); experiment: Ambit screen, ROS1; settings: read-out: IC50 ROS1 in vitro (Ambit screen); racemic forms
[15] = system: Ba/F3 cells expressing EML4-ALK E13;A20 C1156Y; experiment: Cell Titer Blue viability, Ba/F3 EML4-ALK C1156Y; assay type: cell-based; settings: 72h
EML4-ALK E13;A20 L1196M = EML4-ALK E13;A20 L1196M (Homo sapiens, UniProt Q9HC35+Q9UM73, L1196M); experiment: Surrogate kinase assay, L1196M mutant in 293 cells; assay type: cell-based; settings: 2 hours, at higher concentrations than for wild-type fusion
EML4-ALK E13;A20 C1156Y = EML4-ALK E13;A20 C1156Y (Homo sapiens, UniProt Q9HC35+Q9UM73, C1156Y); experiment: Surrogate kinase assay, C1156Y mutant in 293 cells; assay type: cell-based; settings: 2 hours, at higher concentrations than for wild-type fusion
[16] = system: Ba/F3 cells expressing EML4-ALK E13;A20 L1196M; experiment: Cell Titer Blue viability, Ba/F3 EML4-ALK L1196M; assay type: cell-based; settings: 72h
[17] = system: Ba/F3 cells expressing EML4-ALK E13;A20 WT; experiment: Cell Titer Blue viability, Ba/F3 EML4-ALK WT; assay type: cell-based
[18] = system: EML4-ALK E13;A20 in H3122 lung cancer cells; experiment: Endogenous ALK phosphorylation immunoblot in H3122; assay type: cell-based, human; settings: 1 hour treatment, compared to PF-1066
[19] = read-out: IC50 HCC78, 72h, Cell titer blue
[20] = read-out: IC50 H3122, 72h, Cell titer blue
[21] = 72 hours, Chou-Talalay and Mix-Low methods

Compound | IC50 [1, 19] [nM] | IC50 [9] [nM] | no significant toxicity (NST) level [11] [mg/kg] | IC50 [12] [nM] | IC50 ([2]; 72h, Cell titer blue) [nM] | IC50 [6] [nM] | fold more potent against ALK compared to PF-1066 (ALK) | IC50 (ALK) [nM] | IC50 ([3]; 72h, Cell titer blue) [nM] | fold more potent than PF-1066 in H3122 [7] [fold] | IC50 [7, 20] [nM] | IC50 [13] [nM] | IC50 (MET) [nM] | phospho-ALK in 293 cells transfected with EML4-ALK E13;A20 (EML4-ALK E13;A20) | IC50 ([4]; 72h, Cell titer blue) [nM] | bioavailability in vivo [5] | half-life in vivo [5] | also measured
C[C@@H](Oc1cc(-c2cnn(C3CCNCC3)c2)cnc1N)c1c(Cl)ccc(F)c1Cl [PF-1066, crizotinib, reference compound] | 1360 | – | – | – | – | – | – | – | – | – | – | – | – | – | – | – | – | IC50 ([1]; Homo sapiens, HCC78, 72 h, read-out: IC50 HCC78, 72h, Cell titer blue): 1400 nM; IC50 ([2]; Homo sapiens, 72 h): 1670 nM; IC50 ([3]; Homo sapiens, HepG2, 72 h): 14500 nM; IC50 ([4]; Homo sapiens, NCI-H2030, 72 h): 2470 nM; concentration at 2 h ([5]; athymic nude (nu/nu), mouse, plasma, po, 50 mg/kg): 10.2 µM
CO[C@H]1C[C@@H]2CC[C@@H](C)[C@@](O)(O2)C(=O)C(=O)N2CCCC[C@H]2C(=O)O[C@H]([C@H](C)C[C@@H]2CC[C@@H](O)[C@H](OC)C2)CC(=O)[C@H](C)/C=C(\C)[C@@H](O)[C@@H](OC)C(=O)[C@H](C)C[C@H](C)/C=C/C=C/C=C/1C [Rapamycin, rapamycin, reference compound] | – | – | – | – | – | – | – | – | – | – | – | – | – | – | – | – | – | proliferation of H2228 cells, rapamycin alone ([6]; 72 hours): small but reproducible decrease; proliferation of H3122 cells, rapamycin alone ([7]; 72 hours): small but reproducible decrease
COc1cc(N2CCC(N3CCN(C)CC3)CC2)ccc1Nc1ncc(Cl)c(Nc2ccccc2S(=O)(=O)C(C)C)n1 [TAE-684, reference compound] | – | – | – | – | – | – | – | – | – | – | – | – | – | – | – | – | – | IC50 ([7]; Homo sapiens, NCI-H3122, 72 h, read-out: IC50 H3122 cell growth): 5 nM; sensitivity of HCC78 cells [8]: moderate sensitivity
C[C@@H](Oc1cc(C(=O)Nc2ccc(C(=O)N3CCN(C)CC3)cc2)nnc1N)c1c(Cl)ccc(F)c1Cl [X-376] | > 3000 | 32 | 50 | 142 | 3060 | 57 | approximately 10 fold | 0.61 | 15100 | 3 | 77 | 150 | 0.69 | greater reductions in phospho-ALK at lower concentrations of drug | 1430 | substantial bioavailability | moderate half-lives | inhibition of ALK kinase activity of four ALK fusions [10]: dose-dependent inhibition of ALK kinase activity; differences in sensitivity among the four ALK variants ([10]; quantitative examination of immunoblots (data not shown)): no major differences in sensitivity; increase of the liver enzymes AST and ALT at NST level ([11]; 50 mg/kg): < 50%; growth of H3122 xenograft tumors vs vehicle (H3122 xenografts; 50mg/kg bid): significantly delayed the growth of tumors; mouse weight (H3122 xenografts; 50mg/kg bid): unaffected; apoptosis (Annexin V and propidium iodide) (H3122 cells): increased apoptosis; plasma level at 2 hours after dosing ([5]; 50mg/kg): 6.27 µM; brain penetration (brain tissue concentration as % of plasma level) ([14]; 50mg/kg): less; IC50 (ROS1): 19 nM
C[C@@H]1CN(C(=O)c2ccc(NC(=O)c3cc(O[C@H](C)c4c(Cl)ccc(F)c4Cl)c(N)nn3)cc2)C[C@H](C)N1 [X-396] | > 3000 | 9 | 80 | 68 | 2990 | 45 | approximately 10 fold | < 0.4 | 9640 | 10 | 15 | 156 | 0.74 | greater reductions in phospho-ALK at lower concentrations of drug | 757 | substantial bioavailability | moderate half-lives | increase of the liver enzymes AST and ALT at NST level ([11]; 80mg/kg): < 50%; cell growth of H2228, combination with rapamycin [6, 21]: synergistic decrease of cell growth; IC50 ([15]; read-out: IC50 Ba/F3 + EML4-ALK E13;A20 C1156Y, Cell titer blue): 48 nM; IC50 ([15]; read-out: IC50 Ba/F3 EML4-ALK E13;A20 C1156Y): ≤ 100 nM; growth of H3122 xenograft tumors vs vehicle (H3122 xenografts; 25mg/kg bid): significantly delayed the growth of tumors; mouse weight (H3122 xenografts; 25mg/kg bid): unaffected; ALK autophosphorylation, L1196M (EML4-ALK E13;A20 L1196M): significantly diminished; cell growth of H3122, combination with rapamycin [7, 21]: synergistic decrease of cell growth; ALK autophosphorylation, C1156Y (EML4-ALK E13;A20 C1156Y): significantly diminished; IC50 ([16]; read-out: IC50 Ba/F3 + EML4-ALK E13;A20 L1196M, Cell titer blue): 106 nM; IC50 ([16]; read-out: IC50 Ba/F3 EML4-ALK E13;A20 L1196M): ≤ 100 nM; fold more potent than PF-1066 in Ba/F3 EML4-ALK E13;A20 wild-type ([17]; growth inhibition): ~10 fold; IC50 ([17]; read-out: IC50 Ba/F3 + EML4-ALK E13;A20 WT, 72h, Cell titer blue): 22 nM; plasma level at 2 hours after dosing ([5]; 25mg/kg): 2.28 µM; brain penetration (brain tissue concentration as % of plasma level) ([14]; 25mg/kg): 13%; projected concentration in human brain ([14]; projection from mouse study at a human plasma level of ∼500nM): about 65 nM; endogenous ALK phosphorylation in H3122 [18]: inhibited ALK phosphorylation at lower concentrations of drug
